Laboratory results taken from US9192666B2, “Method of treating cancer using anti-c-Met antibody and FGFR inhibitor combination therapy” (Samsung Electronics Co., Ltd., priority 2013, dated 2015).

B1: L3-1Y/IgG2: anti-c-Met antibody: huAbF46-H4-A1 heavy chain variable region, human IgG2 hinge and constant region, kappa light chain (antibody)
heavy: EVQLVESGGGLVQPGGSLRLSCAASGFTFTDYYMSWVRQAPGKGLEWLGFIRNKANGYTTEYSASVKGRFTISRDNSKNTLYLQMNSLRAEDTAVYYCARDNWFAYWGQGTLVTVSSASTKGPSVFPLAPCSRSTSESTAALGCLVKDYFPEPVTVSWNSGALTSGVHTFPAVLQSSGLYSLSSVVTVPSSNFGTQTYTCNVDHKPSNTKVDKTVERKCCVECPPCPAPPVAGPSVFLFPPKPKDTLMISRTPEVTCVVVDVSHEDPEVQFNWYVDGVEVHNAKTKPREEQFNSTFRVVSVLTVVHQDWLNGKEYKCKVSNKGLPAPIEKTISKTKGQPREPQVYTLPPSREEMTKNQVSLTCLVKGFYPSDIAVEWESNGQPENNYKTTPPMLDSDGSFFLYSKLTVDKSRWQQGNVFSCSVMHEALHNHYTQKSLSLSPGK
light: DIQMTQSPSSLSASVGDRVTITCKSSQSLLASGNQNNYLAWYQQKPGKAPKMLIIWASTRVSGVPSRFSGSGSGTDFTLTISSLQPEDFATYYCQQSYSRPYTFGQGTKVEIKRTVAAPSVFIFPPSDEQLKSGTASVVCLLNNFYPREAKVQWKVDNALQSGNSQESVTEQDSKDSTYSLSSTLTLSKADYEKHKVYACEVTHQGLSSPVTKSFNRGEC

Assays:
[1] = test system: L3-1Y/IgG2 resistant MKN45 cells; experiment: Cell viability in L3-1Y/IgG2 resistant MKN45 cells; assay type: cell-based; settings: 72 hours, PD173074 10 uM, BGJ398 5 uM
Procedure: To verify that the co-treatment with a FGFR inhibitor allows overcoming a L3-1Y/IgG2 resistance acquired by repeated treatment of L3-1Y/IgG2, L3-1Y/IgG2 resistant cells were prepared by treating L3-1Y/IgG2 to MKN45 gastric cancer cell line for at least 3 months, and used for the following experiment. The L3-1Y/IgG2 resistant cells were prepared as follows: MKN45 cells (JCRB, JCRB0254) were treated with L3-1Y/IgG2, where the concentration of treated L3-1Y/IgG2 was increased from 1 ug/ml to 10 ug/ml, until the resistance is acquired. To verify the acquirement of resistance to L3-1Y/IgG2, the resistance acquired clones were cultured with or without L3-1Y/IgG2 treatment, and at 72 hours after the treatment, the cell number was measured by CellTiter Glo assay (Promega, G7573), referring to the above example,
The synergistic effect of co-treatment of a FGFR inhibitor and L3-1Y/IgG2 was verified as follows. The prepared L3-1Y/IgG2 resistant MKN45 cells were seeded at the amount of 5,000 cells/well on 96 well plate to which RPMI1640 medium (GIBCO) supplemented with 10% FBS is added, and incubated overnight at 37° C. Next day (24 hours after), the incubated cells were treated with L3-1Y/IgG2 alone or together with FGFR inhibitor, PD173074 or BGJ398. For the treatment of L3-1Y/IgG2 only, the concentration of L3-1Y/IgG2 was 0 ug/ml, 0.016 ug/ml, 0.08 ug/ml, 0.4 ug/ml, or 2 ug/ml, and for the co-treatment, the concentration of the FGFR inhibitor was fixed and the concentration of L3-1Y/IgG2 was 0 ug/ml, 0.016 ug/ml, 0.08 ug/ml, 0.4 ug/ml, or 2 ug/ml. The concentration of the FGFR inhibitor was fixed at 10 uM for PD173074 and 5 uM for BGJ398.
(§1) At 72 hours after the single treatment or the co-treatment, 100 uL of CellTiter Glo solution (Promega, G7572) was added to each well, and left for 30 minutes at room temperature. The cell number was counted by emission signal, and the emission signal was recorded using Envision 2104 Multi-label Reader (Perkin Elmer).

[2] = test system: MKN45 gastric cancer cells; experiment: Cell viability (CellTiter Glo) in MKN45 gastric cancer cell line; assay type: cell-based; settings: for cell growth inhibition: MKN45, 72 hours, L3-1Y/IgG2 0-2 ug/ml, PD173074 fixed at 10 uM
Procedure: In particular, RPMI1640 medium (GIBCO) containing 10% FBS was put in a 96 well plate. MKN45 gastric cancer cells (JCRB, JCRB0254) were seeded thereon in the amount of 5,000 cells/well, and incubated overnight at 37° C. After 24 hours (the next day), the incubated cells were treated with L3-1Y/IgG2 (Reference Example 1) alone, or co-treated with L3-1Y/IgG2 and a FGFR inhibitor, PD173074. For the single treatment of L3-1Y/IgG2 alone, the concentration of L3-1Y/IgG2 was 0 ug (microgram)/ml, 0.016 ug/ml, 0.08 ug/ml, 0.4 ug/ml, or 2 ug/ml, and for the co-treatment of L3-1Y/IgG2 and PD173074, the concentration of PD173074 was fixed at 10 uM (micromole) which is a concentration of IC20 in MKN45 cell line, and the concentration of L3-1Y/IgG2 was 0 ug/ml, 0.016 ug/ml, 0.08 ug/ml, 0.4 ug/ml, or 2 ug/ml.
as §1, with “uL (microliter)” for “uL”

[3] = test system: MKN45 gastric cancer cells; experiment: Tumor xenograft model of MKN45 gastric cancer cell line; assay type: in vivo, BALB/c nude mice; settings: 21st day after treatment vs vehicle, BGJ398 10 mg/kg P.O. once a day, L3-1Y/IgG2 1 mg/kg I.V. once a week
Procedure: To verify the in vivo effect of the co-administration on tumor growth, a tumor xenograft model was prepared using male 5-6 week-old BALB/c nude mice (Pharmalegacy, China). The mice were adapted at least one week before inoculation of tumor cells.
Then, the mice were anesthetized with 1-2% isofurane, and MKN45 gastric cancer cells (JCRB, JCRB0254) were subcutaneously injected into right flank of the mice at the amount of 5×10^6 cells/each mouse. 7 days after, when the average size of tumor reaches 50 mm^3 or more, the mice were grouped into the following groups: a group treated with BGJ398 (10 mg/kg P.O., once a day), a group treated with L3-1Y/IgG2 (1 mg/kg I.V., once a week), a group co-treated with L3-1Y/IgG2 (1 mg/kg, I.V., once a week) and BGJ398 (10 mg/kg, P.O., once a day), and a group (control) treated with vehicle (PBS 0.2 ml, I.V., once a week). Each group consisted of 10 mice.
The experiment was performed for 4 weeks in total, and tumor size and body weight of the mice were measured twice a week. The tumor volume (V) was calculated by the following formula: V(mm^3)={length of long axis(mm)×(length of short axis(mm))^2}/2.

[4] = test system: L3-1Y/IgG2 resistant EBC1 cells; experiment: Cell viability in L3-1Y/IgG2 resistant EBC1 cells; assay type: cell-based; settings: 72 hours, BGJ398 5 uM
Procedure: To verify that the co-treatment with a FGFR inhibitor allows overcoming a L3-1Y/IgG2 resistance acquired by repeated treatment of L3-1Y/IgG2, L3-1Y/IgG2 resistant cells were prepared by treating L3-1Y/IgG2 to EBC1 lung cancer cell line for at least 3 months, and used for the following experiment. The EBC1 lung cancer cell line acquiring the resistant to L3-1Y/IgG2 was prepared referring to Example 4.
The synergistic effect of co-treatment of a FGFR inhibitor and L3-1Y/IgG2 was verified as follows. The prepared L3-1Y/IgG2 resistant EBC1 cells were seeded at the amount of 5,000 cells/well on a 96 well plate to which RPMI1640 medium (GIBCO) supplemented with 10% FBS is added, and incubated overnight at 37° C. Next day (24 hours after), the incubated cells were treated with L3-1Y/IgG2 alone or together with FGFR inhibitor, BGJ398. […]
as §1

[5] = test system: EBC1 lung cancer cells; experiment: Cell viability (CellTiter Glo) in EBC1 lung cancer cell line; assay type: cell-based; settings: 72 hours, L3-1Y/IgG2 0-2 ug/ml, PD173074 10 uM or BGJ398 5 uM
Procedure: (§2) In particular, RPMI1640 medium (GIBCO) containing 10% FBS were put in 96 well plate. EBC1 lung cancer cells (JCRB, JCRB0820) were seeded thereon in the amount of 5,000 cells/well, and incubated overnight at 37° C. After 24 hours (the next day), the incubated cells were treated with L3-1Y/IgG2 (Reference Example 1) alone, or co-treated with L3-1Y/IgG2 and a FGFR inhibitor, PD173074 or BGJ398. For the single treatment of L3-1Y/IgG2 alone, the concentration of L3-1Y/IgG2 was 0 ug/ml, 0.016 ug/ml, 0.08 ug/ml, 0.4 ug/ml, or 2 ug/ml, and for the co-treatment of L3-1Y/IgG2 and PD173074 or BGJ398, the concentration of PD173074 was fixed at 10 uM for PD173074 and 5 uM for BGJ398, and the concentration of L3-1Y/IgG2 was 0 ug/ml, 0.016 ug/ml, 0.08 ug/ml, 0.4 ug/ml, or 2 ug/ml.
as §1

[6] = test system: HT29 colon cancer cells; experiment: Cell viability (CellTiter Glo) in HT29 colon cancer cell line; assay type: cell-based; settings: 72 hours, L3-1Y/IgG2 0-2 ug/ml, PD173074 fixed at 5 uM
Procedure: as §2, with “HT29 colon” for “EBC1 lung”, “(ATCC, HTB-38)” for “(JCRB, JCRB0820)”, “PD173074.” for “PD173074 or BGJ398.”, “PD173074,” for “PD173074 or BGJ398,”, “at” for “at 10 uM for PD173074 and”, “uM,” for “uM for BGJ398,”
as §1

Row | Molecule | cancer cell growth inhibitory effect [1] | IC20 ([2]; Homo sapiens, MKN-45, read-out: concentration of IC20 in MKN45 cell line) | cell growth inhibition [2] | tumor inhibition rate, At d21:TV [3] | cancer cell growth inhibitory effect [4] | cell growth inhibition [5] | cell growth inhibiting effect [6]
1 | CCN(CC)CCCCNc1ncc2cc(-c3cc(OC)cc(OC)c3)c(NC(=O)NC(C)(C)C)nc2n1 [PD173074, N-[2-[[4-(Diethylamino)butyl]amino]-6-(3,5-dimethoxyphenyl)pyrido[2,3-d]pyrimidin-7-yl]-N′-(1,1-dimethylethyl)urea] | not obtained | 10 µM | no significant effect on cell growth |  |  |  | 
2 | CCN1CCN(c2ccc(Nc3cc(N(C)C(=O)Nc4c(Cl)c(OC)cc(OC)c4Cl)ncn3)cc2)CC1 [BGJ398, 3-(2,6-dichloro-3,5-dimethoxyphenyl)-1-(6-(4-(4-ethylpiperazin-1-yl)phenylamino)pyrimidin-4-yl)-1-methylurea, reference compound] | not obtained |  |  | 1.3% | not obtained |  | 
3 | B1 | not obtained |  | cell growth inhibition is observed | 27.8% | not obtained | cell growth inhibiting effect is observed | not observed
